Source: US20130180014A1, “Pyridine Compounds for Controlling Invertebrate Pests III” (BASF SE, priority 2010, published 2013)

What was measured:
Assay type in all cases: in vivo
[1] = test system: Aphis craccivora; assay: Cowpea aphid, spray on potted cowpea plants; conditions: cowpea plants sprayed, assessed after 24, 72 and 120 hours, in comparison with untreated controls
Protocol: The active compounds were formulated in 50:50 (vol/vol) acetone:water. The test solution was prepared at the day of use.
Potted cowpea plants colonized with 100-150 aphids of various stages were sprayed after the pest population had been recorded. Population reduction was assesed after 24, 72, and 120 hours.

[2] = test system: Myzus persicae; assay: Green peach aphid, mixed life stages, method a) pepper leaf dip; conditions: foliar, 120 h, pepper leaves dipped, after 5 days, in comparison with untreated controls
From the text: (§1) The active compounds were formulated in 50:50 (vol/vol) acetone:water and 100 ppm Kinetica™ surfactant.
Pepper plants in the 2nd leaf-pair stage (variety ‘California Wonder’) were infested with approximately 40 laboratory-reared aphids by placing infested leaf sections on top of the test plants. The leaf sections were removed after 24 hr. The leaves of the intact plants were dipped into gradient solutions of the test compound and allowed to dry. Test plants were maintained under fluorescent light (24 hour photoperiod) at about 25° C. and 20-40% relative humidity. Aphid mortality on the treated plants, relative to mortality on check plants, was determined after 5 days.

[3] = test system: Megoura viciae; assay: Vetch aphid, bean leaf disk in microtiterplate; conditions: foliar, 144 h, test solution 2500 mg/L, leaf disks sprayed with 2.5 μl, 6 days
Protocol: The active compounds were formulated in 1:3 (vol/vol) DMSO:water with different concentrations of formulated compounds.
Bean leaf disks were placed into microtiterplates filled with 0.8% agar-agar and 2.5 ppm OPUS™. The leaf disks were sprayed with 2.5 μl of the test solution and 5 to 8 adult aphids were placed into the microtiterplates which were then closed and kept at 23±1° C. and 50±5% relative humidity under fluorescent light for 6 days. Mortality was assessed on the basis of vital, reproduced aphids. Aphid mortality and fecundity was then visually assessed.

[4] = test system: Aphis gossypii; assay: Cotton aphid, mixed life stages, method a) cotyledon dip; conditions: cotton cotyledons dipped, in comparison with untreated controls
From the text: as §1
Cotton plants at the cotyledon stage (one plant per pot) were infested by placing a heavily infested leaf from the main colony on top of each cotyledon. The aphids were allowed to transfer to the host plant overnight, and the leaf used to transfer the aphids was removed. The cotyledons were dipped in the test solution and allowed to dry. After days, mortality counts were made.

[5] = test system: Myzus persicae; assay: Green peach aphid, systemic, artificial diet under membrane in 96-well plate; conditions: 72 h, 3 days, in comparison with untreated controls
From the text: For evaluating control of green peach aphid (Myzus persicae) through systemic means the test unit consisted of 96-well-microtiter plates containing liquid artificial diet under an artificial membrane.
The compounds were formulated using a solution containing 75% vol/vol water and 25% vol/vol DMSO. Different concentrations of formulated compounds were pipetted into the aphid diet, using a custom built pipetter, at two replications. After application, 5 to 8 adult aphids were placed on the artificial membrane inside the microtiter plate wells. The aphids were then allowed to suck on the treated aphid diet and incubated at about 23+1° C. and about 50+5% relative humidity for 3 days. Aphid mortality and fecundity was then visually assessed.

`O=C(Nc1cccnc1)c1cncc(C(F)(F)F)c1` [Example 18, N-Pyridin-3-yl-5-trifluoromethylnicotinamide] was tested. Which mortality at 300 ppm [1] did it give?
Its mortality at 300 ppm is no less than 90%.

And the mortality at 300 ppm [2]?
The mortality at 300 ppm was no less than 90%.

And the mortality at 2500 µg/mL [3]?
Its mortality at 2500 µg/mL is no less than 90%.

What about the mortality at 300 ppm [4] of the same compound?
Its mortality at 300 ppm is no less than 75%.

What about the mortality at 2500 ppm [5] of the same compound?
The mortality at 2500 ppm was 100%.
